Assays:
[1] = tested on: lambsquarters; assay: Test B pre-/postemergence herbicide test; type: in vivo, Chenopodium album
Outline: (§1)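 Evaluation is visual, comparing treated with control plants on a scale where 0 means no effect and 100 means full control. Treatments were preemergence, or postemergence on seedlings 2–18 cm tall, and held 13–15 days in the greenhouse.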

[2] = tested on: barnyardgrass; assay: Test B flooded paddy test; type: in vivo, Echinochloa crus-galli; conditions: 1000 g ai/ha, visual rating, scale 0 to 100 (0 no effect, 100 complete control), 13 to 15 days
Outline: (§2)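 Paddy species grown to the 2-leaf stage under flooding; blackgrass sprayed postemergence at 2–18 cm (1- to 4-leaf stage). Plants kept in a greenhouse for 13 to 15 days, then visually rated against controls on 0 (no effect) to 100 (complete control).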

[3] = tested on: velvetleaf; assay: Test B pre-/postemergence herbicide test; type: in vivo, Abutilon theophrasti
Outline: as §1

[4] = tested on: giant foxtail; assay: Test B pre-/postemergence herbicide test; type: in vivo, Setaria faberi
Outline: as §1

[5] = tested on: wheat; assay: Test B postemergence herbicide test; type: in vivo, Triticum aestivum; set-up: key to Wheat plant response rating: 0 = no effect, 100 = complete control; conditions: scale 0 (no effect) to 100 (complete control)
Outline: (§3)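 Each value is a visual 0–100 response rating taken against controls 13 to 15 days after treatment in the greenhouse. Plants received formulated chemical postemergence at the 1- to 4-leaf stage or, in flooded paddy, at the 2-leaf stage.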

[6] = tested on: cocklebur; assay: Test B pre-/postemergence herbicide test; type: in vivo, Xanthium strumarium
Outline: (§4)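 Test chemicals in a non-phytotoxic solvent mixture with surfactant were applied preemergence to seeded species and postemergence to plants 2-18 cm tall (1- to 4-leaf stage); rice and barnyardgrass were also tested in a flooded paddy at the 2-leaf stage. Visual rating versus controls after 13-15 days in greenhouse, scale 0 (no effect) to 100 (complete control).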

[7] = tested on: ducksalad; assay: Test B flooded paddy test; type: in vivo, Heteranthera limosa; conditions: 1000 g ai/ha, visual rating, scale 0 to 100 (0 no effect, 100 complete control), 13 to 15 days
Outline: as §2

[8] = tested on: Surinam grass; assay: Test B pre-/postemergence herbicide test; type: in vivo, Urochloa decumbens
Outline: as §1

[9] = tested on: pigweed; assay: Test B pre-/postemergence herbicide test; type: in vivo, Amaranthus retroflexus
Outline: as §1

[10] = tested on: barnyardgrass; assay: Test B pre-/postemergence herbicide test; type: in vivo, Echinochloa crus-galli
Outline: as §4

[11] = tested on: blackgrass; assay: Test B postemergence herbicide test; type: in vivo, Alopecurus myosuroides; conditions: scale 0 (no effect) to 100 (complete control)
Outline: as §2

[12] = tested on: morningglory; assay: Test B pre-/postemergence herbicide test; type: in vivo, Ipomoea coccinea
Outline: as §4

[13] = tested on: wild oat; assay: Test B postemergence herbicide test; type: in vivo, Avena fatua; conditions: scale 0 (no effect) to 100 (complete control)
Outline: as §3

[14] = tested on: small flower umbrella sedge; assay: Test B flooded paddy test; type: in vivo, Cyperus difformis; conditions: 1000 g ai/ha, visual rating, scale 0 to 100 (0 no effect, 100 complete control), 13 to 15 days
Outline: as §2

[15] = tested on: rice; assay: Test B flooded paddy test; type: in vivo, Oryza sativa; conditions: 1000 g ai/ha, visual rating, scale 0 to 100 (0 no effect, 100 complete control), 13 to 15 days
Outline: as §3

[16] = 500 g ai/ha, visual rating 0-100, 0 no effect, 100 complete control, preemergence
[17] = Postemergence, 500 g ai/ha, visual rating after 13 to 15 days, scale 0 (no effect) to 100 (complete control)
[18] = postemergence, 125 g ai/ha, visual rating, scale 0 (no effect) to 100 (complete control)
[19] = preemergence, 125 g ai/ha, 0 to 100 scale, 0 is no effect, 100 is complete control
[20] = Postemergence, 500 g ai/ha, visual rating after 13 to 15 days
[21] = postemergence, 125 g ai/ha, visual rating

**Q.** `CCC(=NO)c1cccc(NC(=O)c2cc(C(C)(C)C)nn2C)c1` [Compound 118] was tested. Which “Plant response rating, Lambsquarters” value [1, 16] did it give?
**A.** 0

**Q.** What about the “Plant response rating, Lambsquarters” value [1, 17] of the same molecule?
**A.** 20

**Q.** What about the “Lambsquarters plant response rating” value [1, 18] of the same molecule?
**A.** 0

**Q.** What about the “Plant response rating, Lambsquarters” value [1, 19] of the same molecule?
**A.** 0

**Q.** And the “Barnyardgrass plant response rating” value [2]?
**A.** 50

**Q.** And the “Plant response rating, Velvetleaf” value [3, 16]?
**A.** 10

**Q.** And the “Plant response rating, Velvetleaf” value [3, 17]?
**A.** 40

**Q.** What about the “Velvetleaf plant response rating” value [3, 18] of the same molecule?
**A.** 20

**Q.** What about the “Plant response rating, Velvetleaf” value [3, 19] of the same molecule?
**A.** 0

**Q.** And the “Plant response rating, Foxtail, Giant” value [4, 16]?
**A.** 70

**Q.** And the “Plant response rating, Foxtail, Giant” value [4, 17]?
**A.** 20

**Q.** And the “Foxtail, Giant plant response rating” value [4, 18]?
**A.** 10

**Q.** And the “Plant response rating, Foxtail, Giant” value [4, 19]?
**A.** 10

**Q.** What about the “Plant response rating, Wheat” value [5, 20] of the same molecule?
**A.** 10

**Q.** What about the “Wheat plant response rating” value [5, 21] of the same molecule?
**A.** 10

**Q.** What about the “Plant response rating, Cocklebur” value [6, 16] of the same molecule?
**A.** 10

**Q.** And the “Plant response rating, Cocklebur” value [6, 17]?
**A.** 90

**Q.** What about the “Cocklebur plant response rating” value [6, 18] of the same molecule?
**A.** 70

**Q.** And the “Plant response rating, Cocklebur” value [6, 19]?
**A.** 0

**Q.** And the “Ducksalad plant response rating” value [7]?
**A.** 80

**Q.** What about the “Plant response rating, Surinam Grass” value [8, 16] of the same molecule?
**A.** 50

**Q.** And the “Plant response rating, Surinam Grass” value [8, 17]?
**A.** 40

**Q.** What about the “Surinam Grass plant response rating” value [8, 18] of the same molecule?
**A.** 40

**Q.** And the “Plant response rating, Surinam Grass” value [8, 19]?
**A.** 10

**Q.** And the “Plant response rating, Pigweed” value [9, 16]?
**A.** 90

**Q.** What about the “Plant response rating, Pigweed” value [9, 17] of the same molecule?
**A.** 100

**Q.** And the “Pigweed plant response rating” value [9, 18]?
**A.** 60

**Q.** What about the “Plant response rating, Pigweed” value [9, 19] of the same molecule?
**A.** 60

**Q.** And the “Plant response rating, Barnyardgrass” value [10, 16]?
**A.** 90

**Q.** What about the “Plant response rating, Barnyardgrass” value [10, 17] of the same molecule?
**A.** 30

**Q.** And the “Barnyardgrass plant response rating” value [10, 18]?
**A.** 10

**Q.** What about the “Plant response rating, Barnyardgrass” value [10, 19] of the same molecule?
**A.** 10

**Q.** And the “Plant response rating, Blackgrass” value [11, 20]?
**A.** 10

**Q.** What about the “Blackgrass plant response rating” value [11, 21] of the same molecule?
**A.** 0

**Q.** What about the “Plant response rating, Morningglory” value [12, 16] of the same molecule?
**A.** 60

**Q.** What about the “Plant response rating, Morningglory” value [12, 17] of the same molecule?
**A.** 70

**Q.** What about the “Morningglory plant response rating” value [12, 18] of the same molecule?
**A.** 20

**Q.** And the “Plant response rating, Morningglory” value [12, 19]?
**A.** 10

**Q.** And the “Plant response rating, Oat, Wild” value [13, 20]?
**A.** 20

**Q.** And the “Oat, Wild plant response rating” value [13, 21]?
**A.** 20

**Q.** And the “Sedge, Umbrella plant response rating” value [14]?
**A.** 80

**Q.** And the “Rice plant response rating” value [15]?
**A.** 80

From patent US20060069132A1, “Azolecarboxamide herbicides” (priority 2004, published 2006)
